Here are results for two compounds from patent publication US20030162803A1, “Anhydrovinblastine for the treatment of cancer” (priority 1997, published 2003).

Molecules are shown by their SMILES. Entries after “also recorded” stand apart in the source; their conditions may differ.

One series concerns P388 tumors. Kind of series: Murine P388 model in BDF1 mice. Type of series: in vivo. On the procedure: Antitumor studies on mice focussed, in one case, on the P388 leukaemia model. […] This is an ascitic tumor model that was generated by intraperitoneal inoculation of 1×10^6 P388 cells (derived from culture, with an original cell line obtained from the NCI tumor repository) in BDF1 mice (Charles Rivers). One day after tumor cell inoculation, mice were treated with a single intravenous injection of drug. Animal weight was monitored daily and tumor progression was measured as an increase in animal weight and through estimation of survival time. Therapy was described by a decrease in tumor progression and an increase in survival time relative to an untreated control group. Initial studies established the maximum therapeutic dose for AHVB. Subsequently comparative studies with vincristine and Navelbine™ were initiated where animals were treated with each drug at the maximum therapeutic dose.
The in vivo anti-tumor activity of AHVB was compared to that of vincristine, Navelbine™ in the BDF1-murine P388 model in the procedure as follows. P388 cells were derived from the ascities of previously injected female BDF1 mice (19-21 grams) P388 cells, from the NCI tumor repository were inoculated directly into mice. The cells arrive from NCI frozen in 1 ml aliquots. These samples were thawed rapidly at 37° C. and subsequently injected (within 1 hour) intraperitoneally into two mice, 0.5 ml per mouse. One week (7 days) after inoculation, the tumor cells were harvested by removing peritoneal fluid using a sterile syringe with a 22 gauge needle. The cells, pooled from two animals, were counted using a hemocytometer, diluted (RPMI media) to a concentration of 2×10^6 cells/ml and 0.5 ml was then re-injected into each of two BDF1 mice. Remaining cells were washed and placed into a DMSO containing media and frozen (in freezer packs that cool at a defined rate). This process was repeated weekly over a […]. Cells used for anti-tumor studies were collected from the third passage to the 20th passage. After the 20th passage the cells were no longer used for experimental studies. Newly established cells were derived from the frozen cells prepared as described above.
Groups (five mice per group) of female BDF1 mice (Charles Rivers, Canada) were injected (intraperitoneal) with 10^6 P388 cells (as described above). One day after tumor cell inoculation, the mice were given a bolus intravenous injection of indicated drug via the lateral tail vein. Control groups were injected with saline. Free drug samples were prepared on the day of injection such that the final concentrations were sufficient to deliver the indicated drug dose in a volume of 200 μl. All dilutions were made using 0.9% Sodium Chloride Injection USP. The mice were briefly (less than 30 sec.) restrained during intravenous injections. Dilation of the vein was achieved by holding the animals under a heat lamp for a period of between five and ten minutes. Following administration of the test articles, animals were weighed daily for fourteen days and monitored for signs of stress twice daily for the first 14 days (once daily on weekends) and once daily for the remainder of the study. Severely distressed animals were terminated by CO2 asphyxiation and the time of death was recorded to occur on the following day. Although complete dose titrations were completed for each drug, the data shown in FIG. 6 is that obtained after administration of the free drugs at their maximum tolerated dose. This was 3, 40 and 40 mg/kg for vincristine, Navelbine™ and AHVB, respectively.
After treating mice (bearing the P388 tumor) with a single dose of the indicated drug, animals were examined twice daily for the first 14 days (once daily on weekends). Weight gain in the control is an indication of tumor progression.
The studies were conducted as described for FIG. 6. […]

A short description of series [1]: Toxicological studies in dogs. It counts as in vivo.
In series [2] the test system is advanced refractory solid tumors. Put plainly: Phase I clinical trial, disease response. Type of series: in vivo, human patients. The procedure:
(§1) Patients had normal bone marrow, hepatic and renal function. Twenty-four patients were treated with escalating doses of AHVB, administered as a 1 hour infusion every 3 weeks. The 24 patients comprised 12 male and 12 female patients with a median age of 60 years (range 27-75 years). Twenty-one of the 24 patients were evaluable. Diagnoses were non-small cell lung cancer (NSCLC), colorectal cancer, soft tissue sarcoma, pancreatic cancer, breast cancer and metastatic neuroendocrine cancer in 11, 5, 4, 1, 1, and 1 patient(s), respectively. […] A total of 51 courses were administered at doses of 2.5, 5, 10,16.5, 21,25 and 30 mg/m^2 to 1,3, 1,3, 6, 6 and 1 patient(s), respectively (see Table 4).

The nature of series [3]: Phase I clinical trial, toxicity and MTD. Type of series: in vivo, human patients. On the procedure: as §1
The first patient was entered in the trial at the 2.5 mg/m^2 dose level. […] Five patients were enrolled at the 16.5 mg/m^2 dose level because two patients were not evaluable and had to be replaced. […] Six patients were enrolled at the 25 mg/m^2 dose level. […] This dose level, therefore, exceeded the MTD.
Seven patients were enrolled at the 21 mg/m^2 dose level, but only 6 were evaluable for toxicity due to one patient developing Grade 2 hypertension, headache, nausea and vomiting at the start of the infusion, which recurred on rechallenge. This patient received only 15 ml of the drug solution and, therefore, was not evaluable to assess toxicity. […] The nausea and vomiting observed at the 21 mg/m^2 dose level was a DLT. It was determined that the 21 mg/m^2 dose is the MTD.

For series [4] the following is noted: single agent; cited from earlier work.

On to `CCC1=C[C@H]2CN(CCc3c([nH]c4ccccc34)[C@@](C(=O)OC)(c3cc4c(cc3OC)N(C)[C@H]3[C@@](O)(C(=O)OC)[C@H](OC(C)=O)[C@]5(CC)C=CCN6CC[C@]43[C@@H]65)C2)C1` [AHVB, 3′,4′-anhydrovinblastine], for which the “onset of acute toxic reaction at maximum tolerated dose” value with P388 tumors (40 mg/kg IV) is at most 1 h. Also, the “anti-tumor activity, number of long term survivors (>60 days)” value with P388 tumors (40 mg/kg single IV injection vs vincristine 3 mg/kg, FIG. 6) is “significantly better than that observed for vincristine”. Moreover, the “times less toxic (on a weight basis) than vincristine” value in the series on P388 tumors (mouse, in vivo) was “approximately 10 times”. The “toxicity (vinca alkaloid induced weight loss)” value with P388 tumors (single IV injection at maximum tolerated dose, 40 mg/kg, FIG. 4) is recorded as “least toxic of the three drugs evaluated”. Also, the maximum tolerated dose with P388 tumors (single bolus intravenous injection, BDF1 mice bearing P388 tumors) is 40 mg/kg. In addition, the toxicities entry is “reversible myelosupression and gastrointestinal toxicities” in series [1]; “Grade 2 anorexia, hyperamylasemia, and increased serum creatinine; also recorded: One patient treated developed Grade 2 elevated amylase,; also recorded: elevated creatine and anorexia requiring an additional 2” in series [3] (5 mg/m^2, 1 hour IV infusion every 3 weeks); “One patient treated with minimal toxicity” in series [3] (10 mg/m^2, 1 hour IV infusion every 3 weeks); “Grade 2 toxicities including infusional hypertension, anemia and dizziness; also recorded: replaced. The next patient showed Grade 2 toxicities; also recorded: two patients had minimal toxicities” in series [3] (16.5 mg/m^2, 1 hour IV infusion every 3 weeks); “Grade 3 nausea and vomiting and Grade 2 constipation; also recorded: patient exhibited Grade 3 nausea and vomiting. This does” in series [3] (21 mg/m^2, 1 hour IV infusion every 3 weeks); “DLTs including Grade 4 level constipation and Grade 3 nausea and vomiting; also recorded: grade 4 constipation, Grade 3 tumor pain, nausea, vomiting,; also recorded: anemia and Grade 4 neutropenia (1 patient)” in series [3] (25 mg/m^2, 1 hour IV infusion every 3 weeks). Further, the toxicities result in series [3] (30 mg/m^2, 1 hour IV infusion every 3 weeks) is “One patient treated developed Grade 3 leukopenia”. The stable disease result in series [2] (metastatic NSCLC, 21 and 25 mg/m^2) is “three patients”; in series [2] (metastatic sarcoma to lungs, 10 mg/M^2) it was “one patient”. Besides, the “MTD (maximum-tolerated dose)” value in series [3] (1 hour IV infusion every 3 weeks, patients) is 21 mg/m^2.
With `CCC1=C[C@@H]2CN(C1)Cc1c([nH]c3ccccc13)[C@@](C(=O)OC)(c1cc3c(cc1OC)N(C)[C@H]1[C@@](O)(C(=O)OC)[C@H](OC(C)=O)[C@]4(CC)C=CCN5CC[C@]31[C@@H]54)C2` [Navelbine, 3′,4′-didehydro-4′-deoxy-C′-norvincaleukoblastine-di-L-tartrate], the “mild to moderate peripheral neuropathy (paresthesia and hypesthesia), frequency” value in series [4] is on record as 10 % of patients.
